Results reported in ChEMBL document CHEMBL1129025, “Molecular basis of peripheral vs central benzodiazepine receptor selectivity in a new class of peripheral benzodiazepine receptor ligands related to alpidem” (J Med Chem, 1996).

Assays:
[1] = molecular target: GABA-A receptor; anion channel; assay: Binding affinity against central benzodiazepine receptor(CBR).; type: protein-complex assay
Translocator protein [2] = molecular target: T1, Translocator protein (Rattus norvegicus, UniProt P16257); assay: Binding affinity against peripheral benzodiazepine receptor( PBR).
T1 sequence (P16257 whole entry, looked up): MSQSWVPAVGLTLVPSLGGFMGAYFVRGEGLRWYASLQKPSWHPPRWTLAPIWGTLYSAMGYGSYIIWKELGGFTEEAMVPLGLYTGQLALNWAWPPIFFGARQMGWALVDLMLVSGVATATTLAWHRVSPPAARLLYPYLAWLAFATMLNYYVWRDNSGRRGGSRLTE

Translocator protein [3] = molecular target: T1, Translocator protein; assay: Displacement of [3H]PK11195 from rat cerebral cortex peripheral benzodiazepine receptor (type 1); type: tissue-based
Translocator protein [4] = molecular target: T1, Translocator protein; assay: Displacement of [3H]Ro-5-4864 from rat kidney peripheral benzodiazepine receptor
Translocator protein [5] = molecular target: T1, Translocator protein; assay: Displacement of [3H]-PK11195 from rat kidney peripheral benzodiazepine receptor (type 2)
Translocator protein [6] = molecular target: T1, Translocator protein; assay: Displacement of [3H]PK11195 from rat kidney peripheral benzodiazepine receptor (type 1)
Translocator protein [7] = molecular target: T1, Translocator protein; assay: Displacement of [3H]Ro-5-4864 from rat cerebral cortex peripheral benzodiazepine receptor; type: tissue-based
Translocator protein [8] = molecular target: T1, Translocator protein; assay: Displacement of [3H]PK11195 from rat cerebral cortex peripheral benzodiazepine receptor (type 2); type: tissue-based
Translocator protein [9] = molecular target: T1, Translocator protein; assay: Displacement of [3H]PK11195 from rat kidney peripheral benzodiazepine receptor (type 2)

Compound | IC50 [1] [nM] | IC50 (Translocator protein [2]) [nM] | other results
CCCN(CCC)C(=O)Cc1c(-c2ccc(Cl)cc2)nc2ccc(Cl)cn12 [ALPIDEM] | 28 | 7 | –
CN1CCN(C(=O)OC2c3nccnc3C(=O)N2c2ccc(Cl)cn2)CC1 (centres undefined) [ZOPICLONE] | 29 | – | –
CN(C(=O)/C=C1\c2nc3ccccc3cc2C(=O)N1c1ccc(Cl)cc1)c1ccc(Cl)cc1 | – | 32 | IC50 (Translocator protein [3]): 2.4 nM; IC50 (Translocator protein [4]): 2 nM; IC50 (Translocator protein [5]): 140 nM; IC50 (Translocator protein [6]): 1.1 nM; IC50 (Translocator protein [7]): 4.5 nM; IC50 (Translocator protein [8]): 610 nM
CCCN(CCC)C(=O)CC1c2ncccc2C(=O)N1c1ccc(Cl)cc1 (centres undefined) | 860 | > 1000 | –
CCCCCCN(CCCCCC)C(=O)CC1c2ncccc2C(=O)N1c1ccc(Cl)cc1 (centres undefined) | > 1000 | 1600 | –
CCCN(CCC)C(=O)CC1c2nc3ccccc3cc2C(=O)N1c1ccc(Cl)cc1 (centres undefined) | > 1000 | > 1000 | –
CCCN(CCC)C(=O)C=C1c2nc3ccccc3cc2C(=O)N1c1ccc(Cl)cc1 | – | > 1000 | –
O=C1c2cccnc2CN1c1ccc(Cl)cc1 | > 1000 | > 1000 | –
CCCCCCN(CCCCCC)C(=O)/C=C1\c2ncccc2C(=O)N1c1ccc(Cl)cc1 | > 1000 | 33000 | –
COc1ccc(N(C)C(=O)/C=C2\c3nc4ccccc4cc3C(=O)N2c2ccc(Cl)cc2)cc1 | – | 1.9 | IC50 (Translocator protein [3]): 9.8 nM; IC50 (Translocator protein [4]): 1.7 nM; IC50 (Translocator protein [6]): 0.7 nM; IC50 (Translocator protein [9]): 14 nM; IC50 (Translocator protein [7]): 2.3 nM; IC50 (Translocator protein [8]): 320 nM
CCCCCCN(CCCCCC)C(=O)/C=C1\c2nc3ccccc3cc2C(=O)N1c1ccc(Cl)cc1 | > 1000 | 150 | –
CN(Cc1ccccc1)C(=O)/C=C1\c2nc3ccccc3cc2C(=O)N1c1ccc(Cl)cc1 | – | > 1000 | –
CCCN(CCC)C(=O)/C=C1\c2nc3ccccc3cc2C(=O)N1c1ccc(Cl)cc1 | > 1000 | 40 | IC50 (Translocator protein [3]): 4.9 nM; IC50 (Translocator protein [4]): 150 nM; IC50 (Translocator protein [6]): 2.7 nM; IC50 (Translocator protein [9]): 160 nM; IC50 (Translocator protein [7]): 120 nM; IC50 (Translocator protein [8]): 210 nM
CCCN(CCC)C(=O)/C=C1\c2ncccc2C(=O)N1c1ccc(Cl)cc1 | > 1000 | 290 | –
CCN(Cc1ccccc1)C(=O)/C=C1\c2nc3ccccc3cc2C(=O)N1c1ccc(Cl)cc1 | – | > 1000 | –
CCCCCCN(CCCCCC)C(=O)CC1c2nc3ccccc3cc2C(=O)N1c1ccc(Cl)cc1 (centres undefined) | > 1000 | > 1000 | –
